Results reported in ChEMBL document CHEMBL1201862, “PubChem BioAssay data set” (2004).
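Cultured in 96-well plates, cells were exposed to test compound for 48 hours across five concentrations. At the GI50, growth is halved.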 The source made the active and inactive calls. Cut-off read from the data, not from the text of the source: active = GI50 up to about 1.1 µM and inactive = higher. Peptide text beside a SMILES is read from it. * marks the point of attachment. Boc = CC(C)(C)OC(=O)*; OBn = c1ccc(CO*)cc1

Key:
Test in all cases: NCI tumour cell line growth inhibition, 48 h
[1] = test system: UACC-62
[2] = test system: CAKI-1
[3] = test system: PC-3
[4] = test system: BT-549
[5] = test system: SK-MEL-5
[6] = test system: MOLT-4
[7] = test system: HT-29
[8] = test system: A549
[9] = test system: HCT-15
[10] = test system: 786-0
[11] = test system: U-251
[12] = test system: HCT-116
[13] = test system: SF-268
[14] = test system: SR
[15] = test system: M14
[16] = test system: HL-60
[17] = test system: OVCAR-3
[18] = test system: NCI-H460
[19] = test system: IGROV-1
[20] = test system: HOP-92

Compound | GI50 [1] | GI50 [2] | GI50 [3] | GI50 [4] | GI50 [5] | GI50 [6] | GI50 [7] | GI50 [8] | GI50 [9] | GI50 [10] | GI50 [11] | GI50 [12] | GI50 [13] | GI50 [14] | GI50 [15] | GI50 [16] | GI50 [17] | GI50 [18] | GI50 [19] | GI50 [20]
N=c1oc2c(Cl)cc(Cl)cc2cc1C(=O)Nc1ccccn1 | 20.6 µM (inactive) | > 100 µM (inactive) | 52 µM (inactive) | 41.4 µM (inactive) | > 100 µM (inactive) | 8.24 µM (inactive) | 91.2 µM (inactive) | 44.4 µM (inactive) | 34.8 µM | 27.5 µM (inactive) | 37.2 µM (inactive) | 41.1 µM (inactive) | 33 µM (inactive) | 23.1 µM (inactive) | 33.7 µM (inactive) | > 100 µM (inactive) | 24.6 µM (inactive) | 48.3 µM (inactive) | – | –
CC12CCC(/C(=N/c3ccc([N+](=O)[O-])cc3)C1=O)C2(C)C (stereo not given) | > 100 µM (inactive) | 19.3 µM (inactive) | 24.5 µM (inactive) | 36.6 µM (inactive) | 26.2 µM (inactive) | – | 21 µM (inactive) | 36.1 µM (inactive) | 24.6 µM | 16.8 µM (inactive) | 24.9 µM (inactive) | 19.1 µM (inactive) | 20.3 µM (inactive) | 22.5 µM (inactive) | 27.9 µM (inactive) | – | 21.4 µM (inactive) | 25.6 µM (inactive) | 25.1 µM (inactive) | –
C#CCOC(=O)C=[N+]=[N-] | > 10 µM (inactive) | – | > 10 µM (inactive) | > 10 µM (inactive) | – | > 10 µM (inactive) | > 10 µM (inactive) | > 10 µM (inactive) | > 10 µM | > 10 µM (inactive) | > 10 µM (inactive) | > 10 µM (inactive) | > 10 µM (inactive) | > 10 µM (inactive) | > 10 µM (inactive) | > 10 µM (inactive) | > 10 µM (inactive) | > 10 µM (inactive) | > 10 µM (inactive) | > 10 µM (inactive)
O=C1OC(CS(=O)(=O)c2ccccc2)CC1O (stereo not given) | 41 µM (inactive) | > 100 µM (inactive) | > 100 µM (inactive) | 72.8 µM (inactive) | > 100 µM (inactive) | > 100 µM (inactive) | > 100 µM (inactive) | > 100 µM (inactive) | > 100 µM | > 100 µM (inactive) | > 100 µM (inactive) | > 100 µM (inactive) | > 100 µM (inactive) | > 100 µM (inactive) | > 100 µM (inactive) | – | > 100 µM (inactive) | > 100 µM (inactive) | > 100 µM (inactive) | –
O=C(c1ccc2ccccc2c1)C1S(=O)(=O)OCCOS1(=O)=O | – | > 100 µM (inactive) | > 100 µM (inactive) | > 100 µM (inactive) | > 100 µM (inactive) | > 100 µM (inactive) | > 100 µM (inactive) | > 100 µM (inactive) | > 100 µM | > 100 µM (inactive) | > 100 µM (inactive) | > 100 µM (inactive) | – | > 100 µM (inactive) | > 100 µM (inactive) | > 100 µM (inactive) | > 100 µM (inactive) | > 100 µM (inactive) | – | –
Cc1sc2c(c1C)/C(=N\O)c1cccn1-2 | 95.7 µM (inactive) | 32.6 µM (inactive) | 29.9 µM (inactive) | 42.1 µM (inactive) | 46.1 µM (inactive) | 17.3 µM (inactive) | 30.2 µM (inactive) | 44.5 µM (inactive) | 81.8 µM | 20.1 µM (inactive) | 26.7 µM (inactive) | 37.6 µM (inactive) | 34 µM (inactive) | 22.6 µM (inactive) | 64 µM (inactive) | – | 42.9 µM (inactive) | 35.1 µM (inactive) | 24.3 µM (inactive) | –
CCOc1cc2c(OCc3ccccc3)cc3c4cc(OC)c(OC)cc4c[n+](C)c3c2cc1OC | 1.27 µM (inactive) | 25.4 µM (inactive) | 1.66 µM (inactive) | 0.789 µM (active) | 1.38 µM (inactive) | 0.818 µM (active) | 2.66 µM (inactive) | 4.82 µM (inactive) | 59.6 µM | 2.74 µM (inactive) | 0.601 µM (active) | 1.56 µM (inactive) | 0.492 µM (active) | 0.631 µM (active) | 2.03 µM (inactive) | – | 1.06 µM (active) | 4.97 µM (inactive) | – | 0.361 µM (active)
CC(C)CC(NC(=O)OC(C)(C)C)C(=O)NC(CC(=O)OCc1ccccc1)C(N)=O (stereo not drawn) (Boc-Leu-Asp(OBn)-NH2; configuration not given here) | > 100 µM (inactive) | > 100 µM (inactive) | > 100 µM (inactive) | > 100 µM (inactive) | > 100 µM (inactive) | – | > 100 µM (inactive) | > 100 µM (inactive) | > 100 µM | > 100 µM (inactive) | > 100 µM (inactive) | > 100 µM (inactive) | > 100 µM (inactive) | > 100 µM (inactive) | > 100 µM (inactive) | – | > 100 µM (inactive) | – | > 100 µM (inactive) | > 100 µM (inactive)
